US8808702B2, “Sulfide, sulfoxide and sulfone chalcone analogues, derivatives thereof and therapeutic uses thereof” (Temple University-of the Commonwealth System of Higher …, priority 2006, dated 2014)
Read-outs that look alike come from different tables or passages of the source.

Legend:
[1] = test system: K562 (chronic myelogenous leukaemia); assay: Effect of compounds on tumor cell lines (assay of Latham et al.), K562; format: cell-based; settings: K562 cells, read-out: K 562 potency (IC50)
Method: (§1) The effect of the compounds of the invention on tumor cells was determined by the assay described by Latham et al., Oncogene 12:827-837 (1996). Tumor cells K562 (chronic myelogenous leukaemia) or DU145 (prostate cancer) were plated in 12-well dishes at a cell density of 2.5×10^4 cells well. The plated cells were treated 24 hours later with a compound of the invention dissolved in DMSO at multiple concentrations ranging from 1 μM to 100 μM. The plates were examined 96 hours later under an inverted microscope, Olympus CK-2 using an 10× objective, and compound activity was noted by physical observation. When necessary, the total number of viable cells was determined by trypsinizing the wells and counting the number of viable cells, as determined by trypan blue exclusion, using a hemacytometer.
(§2) The representative compounds listed in Tables 1-5 are shown by way of illustration, and are not intended to limit the scope of the invention. The compounds are prepared and tested by methods based on those described above, except that the compound of Table 5 was dissolved in DMSO at multiple concentrations ranging from 0.1 μM to 100 μM

[2] = test system: DU145 (prostate cancer); assay: Effect of compounds on tumor cell lines (assay of Latham et al.), DU145; format: cell-based; settings: DU145 cells, read-out: DU 145 potency (IC50)
Method: as §1, §2

[3] = Table 1, examined 96 hours after treatment, 1 μM to 100 μM in DMSO
[4] = 96 hours after treatment, 1 μM to 100 μM

SMILES	IC50 [1, 4]	IC50 [2, 4]	other results
O=C(C(=Cc1ccc(F)cc1Cl)Sc1ccc(Br)cc1)c1ccc(Br)cc1 [Example 22]	–	–	IC50 [1, 3]: 1 to 10 µM; IC50 [2, 3]: 1 to 10 µM
Cc1ccc(SC(=Cc2ccc(F)c(C)c2)C(=O)c2ccc(Br)cc2)cc1 [Example 95]	–	–	IC50 [1, 3]: 1 to 10 µM; IC50 [2, 3]: 25 to 50 µM
Cc1ccc(CSC(=Cc2ccc(N(C)C)cc2)C(=O)c2ccc(Cl)cc2)cc1 [Example 285]	10 to 25 µM	10 to 25 µM	–
Cc1ccc(SC(=Cc2ccc(Cl)cc2Cl)C(=O)c2ccc(Cl)cc2)cc1 [Example 71]	–	–	IC50 [1, 3]: 25 to 50 µM; IC50 [2, 3]: 10 to 25 µM
COc1ccc(C=C(Sc2ccc(C)cc2)C(=O)c2ccc(Cl)cc2)cc1 [Example 100]	–	–	IC50 [1, 3]: 1 to 10 µM; IC50 [2, 3]: 1 to 10 µM
O=C(/C(=C\c1cc(Cl)c(O)c(Cl)c1)S(=O)(=O)Cc1ccc(Br)cc1)c1ccc(Br)cc1 [Example 369]	–	–	IC50 ([1]; Homo sapiens, Table 4, examined 96 hours after treatment, 1 μM to 100 μM in DMSO): 25 to 50 µM; IC50 ([2]; Homo sapiens, DU-145, Table 4, examined 96 hours after treatment, 1 μM to 100 μM in DMSO): 25 to 50 µM
COc1cc(OC)c(C=C(Sc2ccc(Br)cc2)C(=O)c2ccc(Cl)cc2)c(OC)c1 [Example 14]	–	–	IC50 [1, 3]: 50 to 100 µM; IC50 [2, 3]: 50 to 100 µM
CCOc1ccc(C=C(SCc2ccc(C)cc2)C(=O)c2ccc(Cl)cc2)cc1OC [Example 289]	25 to 50 µM	25 to 50 µM	–
CC(=O)Oc1ccc(C=C(Sc2ccc(C)cc2)C(=O)c2ccc(Cl)cc2)cc1 [Example 86]	–	–	IC50 [1, 3]: 1 to 10 µM; IC50 [2, 3]: 10 to 25 µM
Cc1ccc(CSC(=Cc2ccc[nH]2)C(=O)c2ccc(Cl)cc2)cc1 [Example 280]	1 to 10 µM	25 to 50 µM	–
Cc1ccc(CSC(=Cc2sccc2C)C(=O)c2ccc(Cl)cc2)cc1 [Example 283]	10 to 25 µM	10 to 25 µM	–
CN(C)c1ccc(C=C(SCc2ccccc2Cl)C(=O)c2ccc(Cl)cc2)cc1 [Example 127]	50 to 100 µM	> 100 µM	–
Cc1ccc(CSC(=Cc2cc(C)ccc2C)C(=O)c2ccc(Cl)cc2)cc1 [Example 273]	10 to 25 µM	10 to 25 µM	–
Cc1ccc(SC(=Cc2c(F)c(F)c(F)c(F)c2F)C(=O)c2ccc(Cl)cc2)cc1 [Example 65]	–	–	IC50 [1, 3]: 25 to 50 µM; IC50 [2, 3]: 25 to 50 µM
Cc1ccc(SC(=Cc2ccc(Br)cc2)C(=O)c2ccc(Cl)cc2)cc1 [Example 88]	–	–	IC50 [1, 3]: 50 to 100 µM; IC50 [2, 3]: 25 to 50 µM
O=C(C(=Cc1ccc(O)cc1O)Sc1ccc(Br)cc1)c1ccc(Cl)cc1 [Example 16]	–	–	IC50 [1, 3]: 25 to 50 µM; IC50 [2, 3]: 50 to 100 µM
O=C(C(=Cc1cccc(Cl)c1Cl)SCc1ccc(Cl)cc1Cl)c1ccc(Cl)cc1 [Example 114]	1 to 10 µM	1 to 10 µM	–
O=C(C(=Cc1ccc(Cl)cc1)Sc1ccc(Br)cc1)c1ccc(Br)cc1 [Example 38]	–	–	IC50 [1, 3]: 1 to 10 µM; IC50 [2, 3]: 1 to 10 µM
O=C(C(=Cc1c[nH]c2ccccc12)Sc1ccc(Br)cc1)c1ccc(Br)cc1 [Example 31]	–	–	IC50 [1, 3]: 1 to 10 µM; IC50 [2, 3]: 1 to 10 µM
CSc1ccc(C=C(Sc2ccc(C)cc2)C(=O)c2ccc(Br)cc2)cc1 [Example 97]	–	–	IC50 [1, 3]: 1 to 10 µM; IC50 [2, 3]: 25 to 50 µM
O=C(C(=Cc1ccc(O)cc1O)Sc1ccccc1Br)c1ccc(Cl)cc1 [Example 7]	–	–	IC50 [1, 3]: 50 to 100 µM; IC50 [2, 3]: 50 to 100 µM
COc1ccccc1C=C(SCc1ccccc1F)C(=O)c1ccc(Cl)cc1 [Example 133]	1 to 10 µM	10 to 25 µM	–
O=C(C(=Cc1ccc(Br)c(O)c1)Sc1ccc(Br)cc1)c1ccc(Br)cc1 [Example 32]	–	–	IC50 [1, 3]: 1 to 10 µM; IC50 [2, 3]: 1 to 10 µM

Second part, led by results:

IC50 [1, 4]	IC50 [2, 4]	SMILES	other results
25 to 50 µM	25 to 50 µM	CSc1ccc(/C=C(/SCc2ccc(Br)cc2)C(=O)c2ccc(C(=O)O)cc2)cc1 [Example 188]	–
≤ 1 µM	1 to 10 µM	CCN(CC)CCOc1ccc(C(=O)/C(=C\c2ccc(F)c([N+](=O)[O-])c2)SCc2ccc(F)cc2)cc1 [Example 338]	–
50 to 100 µM	> 100 µM	O=C(/C(=C\c1ccc(O)c([N+](=O)[O-])c1)SCc1ccc(Br)cc1)c1ccc(O)cc1O [Example 177]	–
10 to 25 µM	10 to 25 µM	O=C(C(=Cc1ccc(F)cc1C(F)(F)F)SCc1ccc(F)cc1)c1ccc(Br)cc1 [Example 260]	–
1 to 10 µM	10 to 25 µM	COc1ccc(C=C(SCc2ccc(Cl)cc2)C(=O)c2ccc(Br)cc2)cc1 [Example 225]	–
1 to 10 µM	10 to 25 µM	O=C(/C(=C\c1ccc(O)c([N+](=O)[O-])c1)SCc1ccc(Br)cc1)c1ccc(C(F)(F)F)cc1 [Example 186]	–
1 to 10 µM	1 to 10 µM	O=C(O)c1ccc(C(=O)/C(=C\c2ccc(Br)cc2)SCc2ccc(Br)cc2)cc1 [Example 166]	–
1 to 10 µM	1 to 10 µM	O=C(C(=Cc1c[nH]c2ccc(Cl)cc12)SCc1ccc(F)cc1)c1ccc(Br)cc1 [Example 267]	–
1 to 10 µM	10 to 25 µM	Cc1ccc(CS/C(=C/c2ccc(F)c([N+](=O)[O-])c2)C(=O)c2ccc(C(=O)O)cc2)cc1 [Example 348]	–
1 to 10 µM	1 to 10 µM	O=C(/C(=C\c1ccc(O)c([N+](=O)[O-])c1)SCc1ccc(Br)cc1)c1ccc([N+](=O)[O-])c(Cl)c1 [Example 179]	–
1 to 10 µM	10 to 25 µM	Cc1cc(C)cc(C=C(SCc2ccc(F)cc2)C(=O)c2ccc(Br)cc2)c1 [Example 242]	–
> 100 µM	> 100 µM	O=C(/C(=C\c1ccc([N+](=O)[O-])c(O)c1)SCc1ccc(Br)cc1)c1ccc(N2CCCC2)cc1 [Example 159]	–
50 to 100 µM	50 to 100 µM	Cc1ccc(CSC(=Cc2ccc(O)c(O)c2O)C(=O)c2ccc(Cl)cc2)cc1 [Example 270]	–
1 to 10 µM	1 to 10 µM	O=C(/C(=C\c1ccc(F)c([N+](=O)[O-])c1)SCc1ccc(F)cc1)c1ccc(OCCCN2CCOCC2)cc1 [Example 340]	–
1 to 10 µM	1 to 10 µM	COc1ccc(C=C(SCc2ccc(Cl)cc2)C(=O)c2ccc(Br)cc2)cc1O [Example 203]	–
1 to 10 µM	10 to 25 µM	O=C(C(=Cc1ccc([N+](=O)[O-])c(O)c1)SCc1ccc(Br)cc1)c1c(F)c(F)c(F)c(F)c1F [Example 152]	–
1 to 10 µM	1 to 10 µM	COc1cc(C(=O)/C(=C\c2ccc(O)c([N+](=O)[O-])c2)SCc2ccc(Br)cc2)cc(OC)c1OC [Example 178]	–
1 to 10 µM	10 to 25 µM	O=C(/C(=C\c1ccc(O)c([N+](=O)[O-])c1)SCc1ccc(Br)cc1)c1ccc(Cl)cc1Cl [Example 176]	–
1 to 10 µM	1 to 10 µM	O=C(C(=Cc1ccc(C(F)(F)F)cc1)SCc1ccc(Cl)cc1)c1ccc(Cl)cc1 [Example 327]	–
10 to 25 µM	10 to 25 µM	O=C(O)c1ccc(C(=O)C(=Cc2ccccc2F)SCc2ccc(Br)cc2)cc1 [Example 306]	–
1 to 10 µM	1 to 10 µM	O=C(C(=Cc1ccc([N+](=O)[O-])c(O)c1)SCc1ccc(Br)cc1)c1ccc([N+](=O)[O-])c(Cl)c1 [Example 154]	–
≤ 1 µM	≤ 1 µM	O=C(C(=Cc1ccc(F)c([N+](=O)[O-])c1)SCc1ccc(Br)cc1)c1ccc(C(=O)N2CCN(CCO)CC2)cc1 [Example 316]	–
1 to 10 µM	1 to 10 µM	O=C(/C(=C\c1cc(I)c(O)c(I)c1)SCc1ccc(Br)cc1)c1ccc(Br)cc1 [Example 173]	–
1 to 10 µM	10 to 25 µM	O=C(C(=Cc1ccc(O)cc1)SCc1ccc(Cl)cc1)c1ccc(Cl)cc1 [Example 222]	–
> 100 µM	> 100 µM	O=C(C(=Cc1ccc(F)c([N+](=O)[O-])c1)SCc1ccc(Br)cc1)c1ccc(Cl)c([N+](=O)[O-])c1 [Example 317]	–
